Results on nine compounds are retold here after patent publication US20210395262A1, “INHIBITORS OF HUMAN IMMUNODEFICIENCY VIRUS REPLICATION” (ViiV HEALTHCARE UK (NO.5) LIMITED, priority 2018, published 2021).

Data set [1] relates to recombinant NL4-3 virus. Briefly: HIV cell culture assay (antiviral activity, luciferase readout in MT-2 cells). In kind it is cell-based. Particulars: Human immunodeficiency virus 1, NL43, MT2. As for the experimental part: HIV cell culture assay—MT-2 cells, 293T cells and the proviral DNA clone of NL4-3 virus were obtained from the […] AIDS Research and Reference Reagent Program. MT-2 cells were propagated in RPMI 1640 media supplemented with 10% heat inactivated fetal bovine serum (FBS), […] penicillin G and up to 100 units/mL streptomycin. The 293T cells were propagated in DMEM media supplemented with 10% heat inactivated FBS, […] penicillin G and […] streptomycin. A recombinant NL4-3 proviral clone, in which a section of the nef gene was replaced with the Renilla luciferase gene, was used to make the reference virus used in these studies. The recombinant virus was prepared through transfection of the recombinant NL4-3 proviral clone into 293T cells using Transit-293 Transfection Reagent from Mirus Bio LLC (Madison, Wis.). Supernatent was harvested after 2-3 days and the amount of virus present was titered in MT-2 cells using luciferase enzyme activity as a marker by measuring luciferase enzyme activity. Luciferase was quantitated using the EnduRen Live Cell Substrate from Promega (Madison, Wis.). Antiviral activities of compounds toward the recombinant virus were quantified by measuring luciferase activity in MT-2 cells infected for 4-5 days with the recombinant virus in the presence of serial dilutions of the compound.
The 50% effective concentration (EC50) was calculated by using the exponential form of the median effect equation where (Fa)=1/[1+(ED50/drug conc.)m] (Johnson V A, Byington R T. Infectivity Assay. In Techniques in HIV Research. ed. Aldovini A, Walker B D. 71-76. New York: Stockton Press. 1990). The 50% inhibitory concentration (EC50) was calculated by using the exponential form of the median effect equation where percent inhibition=1/[1+(EC50/drug concentration)m], where m is a parameter that reflects the slope of the concentration-response curve.

Data set [2] is described as follows: Compound cytotoxicity, XTT-based colorimetric assay. In kind it is cell-based. Particulars: human; uninfected MT2 cells, day 4, XTT; read-out: CC50. As for the experimental part: Compound cytotoxicity and the corresponding CC50 values were determined using the same protocol as described in the antiviral assay except that uninfected cells were used. Cytotoxicity was assessed on day 4 in uninfected MT2 cells by using a XTT (2,3-bis[2-Methoxy-4-nitro-5-sulfophenyl]-2H-tetrazolium-5-carboxyanilide inner salt)-based colorimetric assay (Sigma-Aldrich, St Louis, Mo.).

Bounds are passed on as bounds.

`Cn1nc(NS(C)(=O)=O)c2c(Cl)ccc(-n3c([C@H](Cc4cc(F)cc(F)c4)NC(=O)Cn4nc(C(F)F)c5c4C(F)(F)[C@@H]4C[C@H]54)nc4cc(N5CCC6(CC5)COC6)ccc4c3=O)c21` (atropisomer, axis not shown; (P)) [Example 25, N—((S)-1-((3P)-3-(4-chloro-1-methyl-3-(methylsulfonamido)-1H-indazol-7-yl)-4-oxo-7-(2-oxa-7-azaspiro[3.5]nonan-7-yl)-3,4-dihydroquinazolin-2-yl)-2-(3,5-difluorophenyl)ethyl)-2-((3bS,4aR)-3-(difluoromethyl)-5,5-difluoro-3b,4,4a,5-tetrahydro-1H-cyclopropa[3,4]cyclopenta[1,2-c]pyrazol-1-yl)acetamide]: the EC50 in data set [1] is 0.095 nM. Further, in data set [2], the CC50 at 4 days is above 500 nM.

For `Cn1nc(NS(C)(=O)=O)c2c(Cl)ccc(-n3c([C@H](Cc4cc(F)cc(F)c4)NC(=O)Cn4nc(C(F)F)c5c4C(F)(F)[C@@H]4C[C@H]54)nc4cc(N5CC(S(C)(=O)=O)C5)ccc4c3=O)c21` (atropisomer, axis not shown; (P)) [Example 26, N—((S)-1-((3P)-3-(4-chloro-1-methyl-3-(methylsulfonamido)-1H-indazol-7-yl)-7-(3-(methylsulfonyl)azetidin-1-yl)-4-oxo-3,4-dihydroquinazolin-2-yl)-2-(3,5-difluorophenyl)ethyl)-2-((3bS,4aR)-3-(difluoromethyl)-5,5-difluoro-3b,4,4a,5-tetrahydro-1H-cyclopropa[3,4]cyclopenta[1,2-c]pyrazol-1-yl)acetamide], the EC50 in data set [1] came to 0.295 nM. The CC50 at 4 days in data set [2] was above 500 nM.

For the compound `COC1CCN(c2ccc3c(=O)n(-c4ccc(Cl)c5c(NS(C)(=O)=O)nn(C)c45)c([C@H](Cc4cc(F)cc(F)c4)NC(=O)Cn4nc(C(F)F)c5c4C(F)(F)[C@@H]4C[C@H]54)nc3c2)CC1` (atropisomer, axis not shown; (P)) [Example 28, N—((S)-1-((3P)-3-(4-chloro-1-methyl-3-(methylsulfonamido)-1H-indazol-7-yl)-7-(4-methoxypiperidin-1-yl)-4-oxo-3,4-dihydroquinazolin-2-yl)-2-(3,5-difluorophenyl)ethyl)-2-((3bS,4aR)-3-(difluoromethyl)-5,5-difluoro-3b,4,4a,5-tetrahydro-1H-cyclopropa[3,4]cyclopenta[1,2-c]pyrazol-1-yl)acetamide], in data set [1], the EC50 was 0.12 nM. Moreover, the CC50 at 4 days in data set [2] is above 500 nM.

With `Cn1nc(NS(C)(=O)=O)c2c(Cl)ccc(-n3c([C@H](Cc4cc(F)cc(F)c4)NC(=O)Cn4nc(C(F)F)c5c4C(F)(F)[C@@H]4C[C@H]54)nc4cc(N5CCC(S(C)(=O)=O)CC5)ccc4c3=O)c21` (atropisomer, axis not shown; (P)) [Example 30, N—((S)-1-((3P)-3-(4-chloro-1-methyl-3-(methylsulfonamido)-1H-indazol-7-yl)-7-(4-(methylsulfonyl)piperidin-1-yl)-4-oxo-3,4-dihydroquinazolin-2-yl)-2-(3,5-difluorophenyl)ethyl)-2-((3bS,4aR)-3-(difluoromethyl)-5,5-difluoro-3b,4,4a,5-tetrahydro-1H-cyclopropa[3,4]cyclopenta[1,2-c]pyrazol-1-yl)acetamide], the EC50 in data set [1] stood at 0.381 nM. Moreover, the half-maximal cytotoxic concentration (CC50) at 4 days in data set [2] is above 500 nM.

For the compound `Cn1nc(NS(C)(=O)=O)c2c(Cl)ccc(-n3c([C@H](Cc4cc(F)cc(F)c4)NC(=O)Cn4nc(C(F)F)c5c4C(F)(F)[C@@H]4C[C@H]54)nc4cc(N5CC=CC5)ccc4c3=O)c21` (atropisomer, axis not shown; (P)) [Example 31, N—((S)-1-((3P)-3-(4-chloro-1-methyl-3-(methylsulfonamido)-1H-indazol-7-yl)-7-(2,5-dihydro-1H-pyrrol-1-yl)-4-oxo-3,4-dihydroquinazolin-2-yl)-2-(3,5-difluorophenyl)ethyl)-2-((3bS,4aR)-3-(difluoromethyl)-5,5-difluoro-3b,4,4a,5-tetrahydro-1H-cyclopropa[3,4]cyclopenta[1,2-c]pyrazol-1-yl)acetamide], in data set [1], the EC50 stood at 0.127 nM. In addition, the CC50 at 4 days in data set [2] was above 500 nM.

On to `Cn1nc(NS(C)(=O)=O)c2c(Cl)ccc(-n3c([C@H](Cc4cc(F)cc(F)c4)NC(=O)Cn4nc(C(F)F)c5c4C(F)(F)[C@@H]4C[C@H]54)nc4cc(N5CCC6(CCC6)CC5)ccc4c3=O)c21` (atropisomer, axis not shown; (P)) [Example 34, N—((S)-1-((3P)-3-(4-chloro-1-methyl-3-(methylsulfonamido)-1H-indazol-7-yl)-4-oxo-7-(7-azaspiro[3.5]nonan-7-yl)-3,4-dihydroquinazolin-2-yl)-2-(3,5-difluorophenyl)ethyl)-2-((3bS,4aR)-3-(difluoromethyl)-5,5-difluoro-3b,4,4a,5-tetrahydro-1H-cyclopropa[3,4]cyclopenta[1,2-c]pyrazol-1-yl)acetamide], for which the EC50 in data set [1] was found to be 2.81 nM. Besides, the cytotoxic concentration (CC50) at 4 days in data set [2] is above 1000 nM.

With `Cn1nc(NS(C)(=O)=O)c2c(Cl)ccc(-n3c([C@H](Cc4cc(F)cc(F)c4)NC(=O)Cn4nc(C(F)F)c5c4C(F)(F)[C@@H]4C[C@H]54)nc4cc(N5CCC[C@H]5CO)ccc4c3=O)c21` (atropisomer, axis not shown; (P)) [Example 35, N—((S)-1-((3P)-3-(4-chloro-1-methyl-3-(methylsulfonamido)-1H-indazol-7-yl)-7-((S)-2-(hydroxymethyl)pyrrolidin-1-yl)-4-oxo-3,4-dihydroquinazolin-2-yl)-2-(3,5-difluorophenyl)ethyl)-2-((3bS,4aR)-3-(difluoromethyl)-5,5-difluoro-3b,4,4a,5-tetrahydro-1H-cyclopropa[3,4]cyclopenta[1,2-c]pyrazol-1-yl)acetamide], the EC50 in data set [1] is 0.272 nM. Besides, the CC50 at 4 days in data set [2] is above 10000 nM.

For `O=C(Cn1nc(C(F)F)cc1C(F)F)N[C@@H](Cc1cc(F)cc(F)c1)c1nc2cc(N3CCOCC3)ccc2c(=O)n1-c1ccc(Cl)c2c(NS(=O)(=O)C3CC3)nn(CC(F)F)c12` (atropisomer, axis not shown; (P)) [Example 36, (S)-2-(3,5-bis(difluoromethyl)-1H-pyrazol-1-yl)-N-(1-((3P)-3-(4-chloro-3-(cyclopropanesulfonamido)-1-(2,2-difluoroethyl)-1H-indazol-7-yl)-7-morpholino-4-oxo-3,4-dihydroquinazolin-2-yl)-2-(3,5-difluorophenyl)ethyl)acetamide], the EC50 in data set [1] was 2.31 nM. In addition, in data set [2], the CC50 at 4 days is above 1000 nM.

Turning to `O=C(Cn1nc(C(F)F)cc1C(F)F)N[C@@H](Cc1cc(F)cc(F)c1)c1nc2cc(N3CCCCC3)ccc2c(=O)n1-c1ccc(Cl)c2c(NS(=O)(=O)C3CC3)nn(CC(F)F)c12` (atropisomer, axis not shown; (P)) [Example 37, (S)-2-(3,5-bis(difluoromethyl)-1H-pyrazol-1-yl)-N-(1-((3P)-3-(4-chloro-3-(cyclopropanesulfonamido)-1-(2,2-difluoroethyl)-1H-indazol-7-yl)-4-oxo-7-(piperidin-1-yl)-3,4-dihydroquinazolin-2-yl)-2-(3,5-difluorophenyl)ethyl)acetamide], the EC50 in data set [1] came out at 2.34 nM. In addition, in data set [2], the cytotoxic concentration (CC50) at 4 days was above 1000 nM.
